The experiment concerns the target T1, rCfDDC (recombinant CfDDC, dopa decarboxylase of Chlamys farreri) (Azumapecten farreri, UniProt F8QPW5).
T1 construct: gene DDC; ~65 kDa on gel
T1 sequence (F8QPW5 1-560): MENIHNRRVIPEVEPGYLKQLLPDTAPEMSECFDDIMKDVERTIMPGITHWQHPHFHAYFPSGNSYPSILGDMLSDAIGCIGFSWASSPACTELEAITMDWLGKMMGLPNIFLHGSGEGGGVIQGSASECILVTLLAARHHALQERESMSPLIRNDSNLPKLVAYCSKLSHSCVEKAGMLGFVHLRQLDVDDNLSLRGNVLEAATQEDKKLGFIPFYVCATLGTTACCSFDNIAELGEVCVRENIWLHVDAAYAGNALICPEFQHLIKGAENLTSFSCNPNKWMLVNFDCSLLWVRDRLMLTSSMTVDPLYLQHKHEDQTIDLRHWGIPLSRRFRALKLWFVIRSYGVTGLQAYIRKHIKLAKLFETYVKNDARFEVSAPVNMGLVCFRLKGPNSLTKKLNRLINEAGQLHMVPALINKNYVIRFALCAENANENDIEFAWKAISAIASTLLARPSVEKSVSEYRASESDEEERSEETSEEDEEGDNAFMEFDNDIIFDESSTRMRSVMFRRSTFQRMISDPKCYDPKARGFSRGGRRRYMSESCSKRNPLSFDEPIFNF
Kind of experiment: dopamine formation measured by ELISA kit. It is filed as biochemical. Particulars: 30 mM L-Dopa; 0.4 mM PLP; PBS pH 7.4; 37 °C; 1 h. (In general: ELISA stands for enzyme-linked immunosorbent assay.)

Take `N[C@@H](Cc1ccc(O)c(O)c1)C(=O)O` [L-Dopa]: the “dopamine formation measured by ELISA kit” value is “there was detectable dopamine in the reactions with the addition of rCfDDC”.

Source of the values: article PMC3076384, “A Dopa Decarboxylase Modulating the Immune Response of Scallop Chlamys farreri” (PLoS ONE, 2011).
